According to patent publication US20020049313A1, “Method for introducing foreign material into higher eukaryotic cells” (priority 1994, published 2002):
Entries after “also recorded” stand apart in the source; their conditions may differ.

What was measured:
[1] = system: primary human fibroblasts; test: Luciferase gene expression after adenovirus-aided transferrinfection of primary human fibroblasts; type: cell-based; conditions: for improvement in gene expression: absence of E1B 19K, dexamethasone 10 μM, ibuprofen 100 μM, 5,8,11-eicosatriynoic acid 30 μM; for Induction (-fold) of luciferase expression: 3 μM dexamethasone, 24 hours after transfection
Procedure: Samples of biotinylated, psoralen/UV-inactivated adenovirus dl1014 (8 μl, 1×10^12 particles/ml) were diluted in 150 μl of HBS and mixed with 1 μg of StpL in […] of HBS for 30 minutes at ambient temperature. Aliquots of 6 μg of plasmid DNA (in the case of mixtures of pCMVL-DNA and another plasmid the ratio was 5:1) were diluted in 100 μl of HBS and then mixed with the adenovirus/StpL solution for 30 minutes at ambient temperature. Finally, a 100 μl aliquot of HBS, containing 5 μg of TfpL, was added to each sample, followed by 30 minutes' incubation at ambient temperature.
After surgical removal, skin biopsies were added to 4° C. DMEM containing 10% heat-inactivated FCS, 2 mM glutamine and gentamycin. The biopsies were carefully cut up in a tissue culture device using forceps and a surgical blade in a laminar air current in sterile 6 cm plastic dishes. Then 3 ml of DMEM, containing 20% FCS, 2 mM glutamine and antibiotics were added and the culture was placed in an incubator at 37° C. After 10 days the medium was replaced by DMEM containing 10% FCS. Then the medium was changed a further 2 times a week. 4 weeks after the start of cultivation the cells which had grown out of the tissue fragments were trypsinised and plated out into new culture dishes for transfection.
(§1) The luciferase activity was determined as described in WO 93/07283.
First of all, a series of experiments were carried out intended to establish whether the expression of certain adenovirus genes is capable of intensifying gene expression after transferrinfection. A defined quantity of the luciferase expression plasmid pCMVL (5 μg) was mixed with various plasmid DNA (1 μg in each), incorporated in TfpL/StpL/adenovirus transfection complexes (total volume 500 μl) and applied to primary human fibroblasts (50 μl of complex were applied to 2×10^4 cells per well in a 24-well plate, corresponding to 2.5×10^4 virus particles per cell, the measurements being carried out three times. In FIG. 4 “minus” denotes pSP65; the test DNA is specified in each case). The luciferase activity obtained was measured 48 to 72 hours after transfection. […] The E1 region contains two main gene functions, E1A and E1B. (The E1A products have the effect of separating E2F from the Rb protein and on the other hand they modulate the transcription activity of numerous cellular and adenovirus promoters. The main transcription-transactivator function is contained in the 13S gene product. The 1B gene codes for two main functions: the E1B 55K gene product binds p53 and changes its function. It is assumed that the 19K E1B gene product acts underneath p53 in order to block the apoptotic response).
In order to do this, transfection complexes containing pCMVL plus the plasmid pSP65, or the plasmids which contained the sequence for Bcl-2, E1A or E1B 19K (the quantities of reporter plasmid pCMVL and the relevant test plasmid were 5 μg and 1 μg, respectively, as in the previous Example), with virus particle numbers of 3×10^4 (FIG. 5A), 10^4 (FIG. 5B) or 3×10^3 (FIG. 5C) per cell were applied to primary fibroblasts and the luciferase activity was measured over a period of time. The transfections were carried out as described in the preceding Examples, the cells being given 6, 18 or 60 μl of transfection complex per well, containing 2×10^4 fibroblasts.
(In these experiments, the cells in a well were given 18 μl of transfection complex.) From day 10 onwards, the culture medium was replaced with fresh medium daily; the idea of this procedure was to lower the concentrations of toxins by changing the medium.

NF-KB = NF-KB luciferase reporter activation in A549 NF-KB cells; type: cell-based, human; conditions: 11 h, LPS 2.5 μg/ml, PMA 10^−8M
Source text: The plasmid pNF-KB-Luc responding to NF-KB was constructed as a derivative of the plasmid pTK3kbB described by Boehmelt et al., 1992. In order to do this, pTK3kbB was cut with XhoI and NcoI in order to remove the majority of the sequence coding for CAT, treated with Klenow enzyme and ligated with a Klenow-treated HindIII/SspI fragment of PRSVL, containing the luciferase sequence (De Wet et al., 1987). This yielded the plasmid p3K-Luc which contains a triple binding site for the transcription factor NF-KB plus the luciferase sequence, driven by a thymidine kinase (TK) TATA box.
(§2) In order to prepare the clonal cell lines, containing the reporter plasmid pNF-KB-Luc or pIL-6-Luc, the human lung cancer cell line A549 (ATCC CCL 185) was used as starting material. The plasmids were co-transfected with the neomycin-phosphotransferase-expression plasmid designated pmuatt (a pUC19 plasmid containing the TKneo-sequence; Grosveld et al., 1982) using the transfectam method (Behr et al., 1989) and selected for cells which are resistant to 400 μg/ml of G418 (Sigma). Clonal derivatives which expressed luciferase after induction by PMA were identified and expanded.
as §1
(§3) Stable clones of the lung epithelial carcinoma cell line A549 were produced, which contained pNF-KB-luc or pIL-6-luc as reporter gene construct. […]

[2] = system: IL-6 promoter (NF-IL-6/NF-KB); test: IL-6 promoter luciferase reporter activation in A549 IL-6 cells; type: cell-based, human; conditions: A549/NF-IL-6 luciferase; 10 h; PMA 10^−8M, virus 10^4 Particle/cell
Source text: The construct described by Matsusaka et al., 1993 was used, which contains the luciferase sequence driven by the IL-6 promoter.
as §2, §1, §3
In order to determine the time sequence of the NF-IL-6-and NF-KB-activation, the cells of the two cell lines which were found in the above quantities in a 24 well plate or 6 well plate were each treated with 10^4 adenovirus dl1014 virus particles per cell (which corresponded to 4×10^8 virus particles for each well of the A549 NF-KB cells or 4×10^9 virus particles for each well of the A549 IL-6 cells). […]

## CCCCCCCCC#CCC#CCC#CCCCC(=O)O [5,8,11-eicosatriynoic acid]
[1]
  improvement in gene expression: only dexamethasone brings about a substantial improvement
[1]; presence of E1B 19K, dexamethasone 10 μM, 5,8,11-eicosatriynoic acid 30 μM
  effect on gene expression: synergistic effect

## C[C@@H]1C[C@H]2[C@@H]3CCC4=CC(=O)C=C[C@]4(C)[C@@]3(F)[C@@H](O)C[C@]2(C)[C@@]1(O)C(=O)CO [Dexamethasone, dexamethasone]
[1]; pCMVL/pCMV19K
  Induction (-fold) of luciferase expression: 2.71 -fold
[1]; pCMVL/pSP65 (absence of pCMV19K)
  Induction (-fold) of luciferase expression: 1.65 -fold

## CCCCCCCCCCCCCC(=O)O[C@@H]1[C@@H](C)[C@@]2(O)[C@@H](C=C(CO)C[C@]3(O)C(=O)C(C)=C[C@@H]23)[C@@H]2C(C)(C)[C@]12OC(C)=O [PMA, Phorbolmyristylacetate]
NF-KB
  Increase (-fold): 2.0 (11 h) -fold
[2]
  Increase (-fold): 2.0 (10 h) -fold

## CC(=O)Oc1ccccc1C(=O)O [aspirin, acetylsalicylic acid]
[1]; 10 μM dexamethasone or 2 mM Aspirin from 2 hours after transfection, with and without E1B 19K
  effect on gene expression (luciferase) over time: increase in gene expression both in the presence and in the absence of E1B 19K; also recorded: less marked than that of dexamethasone
[1]; 10 μM dexamethasone or 2 mM Aspirin, pCMV19K co-transfected
  interaction with the E1B 19K gene in increase of gene expression: synergistic effect

## CC(C)Cc1ccc(C(C)C(=O)O)cc1 (stereo not drawn) [ibuprofen, Ibuprofen]
[1]
  improvement in gene expression: only dexamethasone brings about a substantial improvement
